Here are results for eleven compounds from ChEMBL document CHEMBL5291721, “A preclinical secondary pharmacology resource illuminates target-adverse drug reaction associations of marketed drugs” (Nat Commun, 2023).

Structures are written as SMILES. Where a SMILES comes first, the peptide text is derived from it. Where only a bound is given, the exact number is not on record here.

The target in assay [1] is T1, Alpha-2C adrenergic receptor (Homo sapiens, UniProt P18825).
T1 sequence (P18825 whole entry): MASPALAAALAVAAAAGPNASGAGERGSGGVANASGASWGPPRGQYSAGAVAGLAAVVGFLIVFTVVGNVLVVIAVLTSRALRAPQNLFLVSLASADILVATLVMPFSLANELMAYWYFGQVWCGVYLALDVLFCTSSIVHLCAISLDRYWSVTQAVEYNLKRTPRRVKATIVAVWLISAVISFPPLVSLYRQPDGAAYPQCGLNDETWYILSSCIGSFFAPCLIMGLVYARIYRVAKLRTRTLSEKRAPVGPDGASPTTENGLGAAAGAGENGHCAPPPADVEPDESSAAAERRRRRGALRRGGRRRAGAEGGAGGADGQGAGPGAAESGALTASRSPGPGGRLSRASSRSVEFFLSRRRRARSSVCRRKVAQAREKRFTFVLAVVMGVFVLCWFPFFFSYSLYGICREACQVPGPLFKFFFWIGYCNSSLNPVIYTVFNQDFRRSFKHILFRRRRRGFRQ
Type of assay: functional.

Another assay concerns the target D(1A) dopamine receptor (Homo sapiens, UniProt P21728). Type of assay: functional, cell-based.
The target in assay [2] is Voltage-dependent L-type calcium channel subunit alpha-1C (Rattus norvegicus, UniProt P22002). Type of assay: functional.
In the next assay the target is T2, Estrogen receptor (Homo sapiens, UniProt P03372).
T2 sequence (P03372 whole entry): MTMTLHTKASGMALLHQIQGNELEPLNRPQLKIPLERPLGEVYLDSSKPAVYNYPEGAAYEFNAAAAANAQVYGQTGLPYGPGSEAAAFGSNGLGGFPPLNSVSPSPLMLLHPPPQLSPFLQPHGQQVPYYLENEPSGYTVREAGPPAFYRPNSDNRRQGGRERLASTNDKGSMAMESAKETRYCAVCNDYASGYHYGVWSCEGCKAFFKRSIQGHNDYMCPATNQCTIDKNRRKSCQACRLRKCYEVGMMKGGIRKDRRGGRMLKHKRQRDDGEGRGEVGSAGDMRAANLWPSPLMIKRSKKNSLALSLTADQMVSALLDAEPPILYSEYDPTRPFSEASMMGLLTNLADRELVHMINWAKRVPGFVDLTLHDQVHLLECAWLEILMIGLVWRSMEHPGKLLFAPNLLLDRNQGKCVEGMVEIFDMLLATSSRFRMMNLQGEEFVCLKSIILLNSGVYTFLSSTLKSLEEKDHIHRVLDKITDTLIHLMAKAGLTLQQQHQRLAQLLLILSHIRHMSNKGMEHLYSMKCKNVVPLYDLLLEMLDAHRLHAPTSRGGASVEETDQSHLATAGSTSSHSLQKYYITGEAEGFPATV

For assay [3], the target named is T3, 5-hydroxytryptamine receptor 3A (Homo sapiens, UniProt P46098).
T3 sequence (P46098 whole entry): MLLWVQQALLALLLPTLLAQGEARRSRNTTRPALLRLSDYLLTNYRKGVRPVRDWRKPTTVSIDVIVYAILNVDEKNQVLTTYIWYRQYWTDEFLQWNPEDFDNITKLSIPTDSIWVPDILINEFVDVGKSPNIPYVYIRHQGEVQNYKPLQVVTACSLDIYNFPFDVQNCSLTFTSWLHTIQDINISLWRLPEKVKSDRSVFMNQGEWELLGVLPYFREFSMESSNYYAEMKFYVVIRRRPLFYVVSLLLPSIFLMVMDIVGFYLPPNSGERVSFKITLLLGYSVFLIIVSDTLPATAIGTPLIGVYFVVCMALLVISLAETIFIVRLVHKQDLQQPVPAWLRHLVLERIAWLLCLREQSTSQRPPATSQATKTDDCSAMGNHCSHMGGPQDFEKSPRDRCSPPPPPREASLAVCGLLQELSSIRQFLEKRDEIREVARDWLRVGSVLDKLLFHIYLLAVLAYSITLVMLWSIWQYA
The format is functional.

Assay [4] has as its target T4, Type-1 angiotensin II receptor (Homo sapiens, UniProt P30556).
T4 sequence (P30556 whole entry): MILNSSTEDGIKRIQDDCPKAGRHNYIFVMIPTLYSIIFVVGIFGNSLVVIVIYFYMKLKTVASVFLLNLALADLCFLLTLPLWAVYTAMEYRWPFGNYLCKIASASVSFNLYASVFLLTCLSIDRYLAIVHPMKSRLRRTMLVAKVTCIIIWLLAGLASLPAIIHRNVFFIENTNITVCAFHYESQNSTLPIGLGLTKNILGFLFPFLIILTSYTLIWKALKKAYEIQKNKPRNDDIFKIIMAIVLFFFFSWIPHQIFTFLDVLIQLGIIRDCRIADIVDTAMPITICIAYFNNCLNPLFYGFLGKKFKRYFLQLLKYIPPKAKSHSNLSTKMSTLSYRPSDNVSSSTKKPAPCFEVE

Assay [5] concerns the target T5, Cholecystokinin receptor type A (Homo sapiens, UniProt P32238).
T5 sequence (P32238 whole entry): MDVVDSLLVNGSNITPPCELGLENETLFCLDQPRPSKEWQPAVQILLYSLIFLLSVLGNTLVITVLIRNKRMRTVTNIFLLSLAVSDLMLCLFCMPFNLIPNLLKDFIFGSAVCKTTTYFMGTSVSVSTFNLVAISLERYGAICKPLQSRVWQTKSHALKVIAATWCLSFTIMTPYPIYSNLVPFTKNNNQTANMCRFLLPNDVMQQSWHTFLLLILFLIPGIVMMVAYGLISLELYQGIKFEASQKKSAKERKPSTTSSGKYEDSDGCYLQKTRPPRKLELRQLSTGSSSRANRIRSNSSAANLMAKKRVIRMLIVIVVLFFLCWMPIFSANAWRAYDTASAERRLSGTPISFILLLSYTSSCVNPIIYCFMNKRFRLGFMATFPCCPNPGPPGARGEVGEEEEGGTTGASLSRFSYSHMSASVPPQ

Assay [6] has as its target T6, 5-hydroxytryptamine receptor 1A (Homo sapiens, UniProt P08908).
T6 sequence (P08908 whole entry): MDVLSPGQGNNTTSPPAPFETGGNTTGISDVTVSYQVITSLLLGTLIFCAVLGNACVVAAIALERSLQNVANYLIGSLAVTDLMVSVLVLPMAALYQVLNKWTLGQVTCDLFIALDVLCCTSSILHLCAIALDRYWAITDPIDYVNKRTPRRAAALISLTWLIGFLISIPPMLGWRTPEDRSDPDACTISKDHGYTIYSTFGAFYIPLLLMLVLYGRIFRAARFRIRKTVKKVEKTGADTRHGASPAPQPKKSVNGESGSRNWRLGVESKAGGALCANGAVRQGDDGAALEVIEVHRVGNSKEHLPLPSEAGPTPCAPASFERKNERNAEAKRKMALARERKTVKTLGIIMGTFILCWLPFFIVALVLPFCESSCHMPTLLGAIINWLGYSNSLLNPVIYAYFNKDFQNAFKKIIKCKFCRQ
Type of assay: functional, cell-based.
Further: assay procedure not described here.

D(1A) dopamine receptor, sequence (P21728 whole entry): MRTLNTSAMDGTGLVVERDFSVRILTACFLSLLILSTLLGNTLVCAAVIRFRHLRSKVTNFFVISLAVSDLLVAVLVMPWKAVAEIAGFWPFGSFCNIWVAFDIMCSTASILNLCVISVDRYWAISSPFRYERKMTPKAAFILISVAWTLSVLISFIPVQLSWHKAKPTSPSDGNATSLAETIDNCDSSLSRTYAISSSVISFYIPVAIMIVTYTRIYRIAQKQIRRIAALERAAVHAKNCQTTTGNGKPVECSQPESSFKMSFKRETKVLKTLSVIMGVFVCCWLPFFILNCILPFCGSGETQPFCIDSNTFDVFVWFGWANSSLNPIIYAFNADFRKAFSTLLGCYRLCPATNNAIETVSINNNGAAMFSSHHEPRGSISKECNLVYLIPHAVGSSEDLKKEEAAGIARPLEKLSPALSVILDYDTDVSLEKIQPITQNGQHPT
Voltage-dependent L-type calcium channel subunit alpha-1C, sequence (P22002 whole entry): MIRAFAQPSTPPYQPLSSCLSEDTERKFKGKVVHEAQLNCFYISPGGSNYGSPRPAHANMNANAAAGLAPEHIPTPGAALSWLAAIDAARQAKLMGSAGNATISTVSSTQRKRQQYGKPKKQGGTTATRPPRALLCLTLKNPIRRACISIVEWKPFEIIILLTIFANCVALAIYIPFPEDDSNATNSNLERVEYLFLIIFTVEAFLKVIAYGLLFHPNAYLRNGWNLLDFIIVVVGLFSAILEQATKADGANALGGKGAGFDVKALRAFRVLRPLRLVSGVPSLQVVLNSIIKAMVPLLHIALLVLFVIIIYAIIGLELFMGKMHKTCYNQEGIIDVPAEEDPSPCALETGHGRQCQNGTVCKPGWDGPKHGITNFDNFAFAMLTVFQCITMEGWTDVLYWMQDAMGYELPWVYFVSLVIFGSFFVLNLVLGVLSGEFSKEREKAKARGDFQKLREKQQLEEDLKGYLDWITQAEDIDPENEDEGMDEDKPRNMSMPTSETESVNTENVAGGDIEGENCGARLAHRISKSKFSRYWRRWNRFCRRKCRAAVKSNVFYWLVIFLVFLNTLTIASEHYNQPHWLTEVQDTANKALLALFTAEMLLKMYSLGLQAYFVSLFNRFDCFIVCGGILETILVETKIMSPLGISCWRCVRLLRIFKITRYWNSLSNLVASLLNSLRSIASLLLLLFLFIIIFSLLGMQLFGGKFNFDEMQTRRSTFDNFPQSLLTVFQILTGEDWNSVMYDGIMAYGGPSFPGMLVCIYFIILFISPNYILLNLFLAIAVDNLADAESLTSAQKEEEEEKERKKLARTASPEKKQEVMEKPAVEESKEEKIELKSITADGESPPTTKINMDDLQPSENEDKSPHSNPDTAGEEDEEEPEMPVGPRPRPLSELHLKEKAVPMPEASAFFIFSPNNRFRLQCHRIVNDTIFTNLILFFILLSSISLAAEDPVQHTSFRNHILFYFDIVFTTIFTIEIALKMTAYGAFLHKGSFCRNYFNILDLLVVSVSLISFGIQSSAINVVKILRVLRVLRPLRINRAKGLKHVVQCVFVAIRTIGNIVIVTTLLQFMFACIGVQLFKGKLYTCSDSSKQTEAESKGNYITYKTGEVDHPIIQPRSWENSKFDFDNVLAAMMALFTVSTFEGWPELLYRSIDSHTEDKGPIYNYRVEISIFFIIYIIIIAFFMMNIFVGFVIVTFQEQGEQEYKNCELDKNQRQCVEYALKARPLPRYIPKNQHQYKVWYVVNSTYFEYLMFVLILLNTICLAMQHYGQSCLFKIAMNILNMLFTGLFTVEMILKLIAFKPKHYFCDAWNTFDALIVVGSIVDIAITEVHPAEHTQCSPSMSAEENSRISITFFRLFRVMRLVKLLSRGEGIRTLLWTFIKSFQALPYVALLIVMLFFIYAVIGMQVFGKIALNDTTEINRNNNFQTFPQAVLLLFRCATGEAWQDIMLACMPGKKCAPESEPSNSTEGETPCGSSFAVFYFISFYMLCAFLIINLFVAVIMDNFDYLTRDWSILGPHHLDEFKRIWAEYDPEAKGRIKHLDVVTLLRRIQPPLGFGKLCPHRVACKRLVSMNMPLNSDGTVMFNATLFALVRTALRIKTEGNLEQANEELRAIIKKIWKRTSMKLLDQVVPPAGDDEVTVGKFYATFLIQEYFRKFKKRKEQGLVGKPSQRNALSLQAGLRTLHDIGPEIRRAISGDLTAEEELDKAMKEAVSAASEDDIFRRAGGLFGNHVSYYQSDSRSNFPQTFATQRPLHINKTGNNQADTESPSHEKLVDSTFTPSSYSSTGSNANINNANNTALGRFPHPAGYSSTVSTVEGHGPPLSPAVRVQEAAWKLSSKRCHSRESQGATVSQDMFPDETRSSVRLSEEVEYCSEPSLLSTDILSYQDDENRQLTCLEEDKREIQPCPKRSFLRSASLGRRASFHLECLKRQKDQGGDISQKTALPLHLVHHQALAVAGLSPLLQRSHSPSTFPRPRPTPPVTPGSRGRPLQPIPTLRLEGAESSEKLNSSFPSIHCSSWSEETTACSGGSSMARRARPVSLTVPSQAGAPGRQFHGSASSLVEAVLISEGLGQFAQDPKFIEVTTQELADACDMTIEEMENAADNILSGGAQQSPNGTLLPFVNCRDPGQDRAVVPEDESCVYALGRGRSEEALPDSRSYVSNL

Consider `O=C(O)c1ccc2nc(-c3cc(Cl)cc(Cl)c3)oc2c1`, for which the AC50 in assay [1] is > 30 µM; on D(1A) dopamine receptor, 12 µM; in assay [2], > 30 µM; on Estrogen receptor it was > 30 µM; in assay [3], > 30 µM; in assay [4], > 30 µM. The AC50 in assay [5] is > 30 µM.
As to `C[C@H](N)C(=O)N[C@@H](CCC(N)=O)C(=O)O` [ALANYL GLUTAMINE] (H-Ala-Gln-OH), the concentration at half-maximal activity (AC50) (in assay [1]; at D(1A) dopamine receptor; in assay [2]; at Estrogen receptor; in assay [3]; in assay [4]) was > 30 µM each time. For the same compound, the half-maximal activity concentration (AC50) in assay [5] is > 30 µM.
`O=C(O)CCCC[C@@H]1SC[C@@H]2NC(=O)N[C@@H]21` [BIOTIN]: the half-maximal activity concentration (AC50) in assay [1] is > 10 µM; on D(1A) dopamine receptor, > 10 µM; in assay [2], > 10 µM; in assay [6] it was > 10 µM; at Estrogen receptor it was > 10 µM; in assay [3], > 30 µM. For the same compound, the AC50 in assay [4] and in assay [5] was > 10 µM each time.
Regarding `CCCCOC(=O)c1ccc(N)cc1` [BUTAMBEN], the AC50 (in assay [1]; on D(1A) dopamine receptor; in assay [2]; in assay [6]; on Estrogen receptor; in assay [3]) was > 30 µM in each case. In addition, the AC50 in assay [4] and in assay [5] was > 30 µM throughout.
Regarding `CO/N=C(\C(=O)N[C@@H]1C(=O)N2C(C(=O)O)=C(CSc3nc(C)c(CC(=O)O)s3)CS[C@H]12)c1csc(N)n1` [CEFODIZIME], the concentration at half-maximal activity (AC50) (in assay [1]; on D(1A) dopamine receptor; in assay [2]; at Estrogen receptor; in assay [3]; in assay [4]) was > 30 µM throughout. For the same compound, in assay [5], the AC50 was > 30 µM.
On to `CCCCOC(=O)C(=O)Nc1cccc(-c2nnn[nH]2)c1` [TAZANOLAST], for which the AC50 (in assay [1]; on D(1A) dopamine receptor; in assay [2]; on Estrogen receptor; in assay [3]; in assay [4]) was > 30 µM each time. Besides, in assay [5], the AC50 is > 30 µM.
`CCCCC[C@H](O)CC[C@@H]1[C@H]2Cc3cccc(OCC(=O)O)c3C[C@H]2C[C@H]1O` [TREPROSTINIL]: the half-maximal activity concentration (AC50) (in assay [1]; at D(1A) dopamine receptor; in assay [6]; at Estrogen receptor; in assay [3]; in assay [4]) was > 30 µM in each case. For the same compound, the half-maximal activity concentration (AC50) in assay [5] is > 30 µM.
For `CC1=C(/C=C/C(C)=C/C=C/C(C)=C/C(=O)Oc2c(C)c(C)c3c(c2C)CCC(C)(CCCC(C)CCCC(C)CCCC(C)C)O3)C(C)(C)CCC1` (centres undefined) [TRETINOIN TOCOFERIL], the AC50 (in assay [1]; at D(1A) dopamine receptor; in assay [2]; at Estrogen receptor; in assay [3]; in assay [4]) was > 30 µM throughout. The concentration at half-maximal activity (AC50) in assay [5] was > 30 µM.
Regarding `CN(C)CCOCC(=O)NC12CC3CC(CC(C3)C1)C2` [TROMANTADINE], the concentration at half-maximal activity (AC50) (in assay [1]; on D(1A) dopamine receptor; in assay [2]; at Estrogen receptor; in assay [3]; in assay [4]) was > 30 µM in each case. In assay [5], the AC50 was > 30 µM.
Turning to `CCCCCCCC(=O)CC[C@@H]1[C@@H](C/C=C\CCCC(=O)O)[C@@H](O)C[C@H]1O` [UNOPROSTONE], the concentration at half-maximal activity (AC50) (in assay [1]; on D(1A) dopamine receptor; in assay [6]; on Estrogen receptor; in assay [3]; in assay [4]) was > 30 µM throughout. Besides, the half-maximal activity concentration (AC50) in assay [5] was > 30 µM.
`OCC(CO)N[C@H]1C[C@](O)(CO)[C@@H](O)[C@H](O)[C@H]1O` [VOGLIBOSE]: the AC50 (in assay [1]; at D(1A) dopamine receptor; in assay [2]; at Estrogen receptor; in assay [3]; in assay [4]) was > 30 µM in each case. In assay [5], the concentration at half-maximal activity (AC50) was > 30 µM.

The term AC50 denotes the concentration at which the activity in the assay is half-maximal.
